The values below come from article PMC7762498, “Demethoxycurcumin analogue DMC-BH exhibits potent anticancer effects on orthotopic glioblastomas” (Aging (Albany NY), 2020).

In test [1] the test system is glioblastoma multiforme (GBM) patient derived tumors. The experiment in a line: Patient-derived tumor xenograft (PDTX) model. Particulars: B-NDG mice; DMC-BH 7.5, 15 or 30 mg/kg, TMZ 20 mg/kg. The format is in vivo, mice. From the text:
In recent years, PDTX models have been used to mimic human tumors. These models are more clinically relevant than cell line-based xenograft models. Thus, we performed an in vivo study in a PDTX tumor model by implanting human glioma samples from a patient donor into B-NDG mice (Figure 7A).
Figure 7 In vivo anti-tumor activity of DMC-BH in the PDTX tumor model. (A) A scheme illustrating the process of creating the patient-derived tumor model. (B) Tumor growth curves of mice after treatment with 7.5 mg/kg, 15 mg/kg or 30 mg/kg DMC-BH or 20 mg/kg TMZ. (C) Average tumor weight at day 21 after different treatments. (D) Quantification of the Ki67-positive area in different treatment groups. (E) Representative H&E-stained tumor slices and Ki67 immunofluorescence labeled tumor tissue sections from different treatments groups. The data are shown as mean ± SD (n = 6).
Surgically resected human glioma tissue was obtained from a cancer patient (#0407002) following an approved Nanjing Medicinal University Institutional Review Board protocol. Within 2 hours of surgical resection, tumor tissues were cut into 1-2 mm fragments and implanted into SCID mice (B-NDG, 6 weeks old, female) using a surgical procedure approved by Nanjing Medicinal University Institutional Animal Care and Use committee. After surgery, tumor growth in the mice was monitored by palpating the abdomen twice per week. Tumors grew to 5-10 mm in diameter in about 8-10 weeks. The SCID mice bearing PDTX tumors were sacrificed, and tumor fragments of 1 to 2 mm in size were implanted into 6-week-old female SCID mice. Over 60% of the mice experienced tumor growth in approximately 6 weeks.

A further test concerns U87 cell line. The test can be described thus: Subcutaneous human glioma xenograft in SCID mice. Type of test: in vivo. An excerpt: To examine the anti-glioma effects of DMC-BH in vivo, a human glioma-SCID (severe combined immunodeficient) mouse model was established using the U87 cell line. […] The tumor volumes for the control, TMZ, DMC, and DMC-BH mice at day 21 were 1514 mm^3, 587 mm^3, 876 mm^3 and 570 mm^3, respectively. […] As shown in the Kaplan-Meier curves, the median survival was 15, 27, 19 and 35 days for the control, TMZ, DMC and DMC-BH groups, respectively (Figure 3B).
Figure 3 DMC-BH inhibited U87 glioma cell growth in vivo. Subcutaneous tumors generated from U87 cells were allowed to reach a volume of 150-200 mm^3 and were treated with 20 mg/kg TMZ, DMC or DMC-BH for 21 days. (A) Tumor volume was recorded according to treatment group at the indicated day. (B) The survival of brain tumor-bearing mice was recorded and represented in a Kaplan-Meier plot.
1-[4-Hydroxy-3-(pyrrolidin-1-ylmethyl) phenyl]-7-(4-hydroxy-3-methoxyphenyl) hepta-1,6-diene-3,5-dione, named DMC-BH, was constructed by our lab. DMC was obtained from Sigma-Aldrich (St. Louis, MO). To test the anti-glioma effect of DMC-BH in vivo, a xenograft model of human glioma was established. Four-week-old male SCID mice were purchased from Vital River Laboratory Animal Technology Co., Ltd. (Beijing, China). After a 1-week acclimatization, SCID mice were injected subcutaneously in the right flank with 6 × 10^5 […] glioma cells resuspended in 50 μL DMEM media. Treatment was initiated when the subcutaneous tumors reached an average size of 150 mm^3 to 200 mm^3. Mice received intraperitoneal injection of DMC (20 mg/kg/day), DMC-BH (20 mg/kg/day), TMZ (20 mg/kg/day) or vehicle as a control. Tumor diameter was measured every 2 days with calipers, and the tumor volume was calculated (length × width × height × 0.5). All experiments were carried out in keeping with the procedures and protocols of the Animal Ethics Committee of the First People's Hospital of Kunshan.
(In general: In xenograft studies the graft and the host belong to different species.)

Consider `Cn1nnc2c(C(N)=O)ncn2c1=O` [TMZ, temozolomide], for which the “tumor growth in PDTX model” value in test [1] is on record as “significant tumor regression”. Besides, the “tumor volume at day 21” value with U87 cell line (U87 subcutaneous xenograft, 20 mg/kg/day intraperitoneal, 21 days, control 1514 mm^3) amounted to 587 mm^3. Besides, the median survival in the test with U87 cell line (U87 xenograft, 20 mg/kg, control 15 days) stood at 27 days.
